Assay results as given in publication PMC9981719, “A novel designed membrane-active peptide for the control of foodborne Salmonella enterica serovar Typhimurium” (Scientific Reports, 2023).
Where no end group is shown, it is not given here.

What was measured:
[1] = system: Salmonella Typhimurium ATCC 13311; assay type: cell-based, Salmonella enterica serovar Typhimurium; settings: ATCC 13311, 18 h
Source text: (§1) All tests were done in triplicate.

S. Typhimurium H1-001 [2] = assay type: cell-based, Salmonella enterica serovar Typhimurium; settings: strain H1-001
Source text: as §1

S. Typhimurium H1-011 [3] = assay type: cell-based, Salmonella enterica serovar Typhimurium; settings: strain H1-011
Source text: as §1

S. Typhimurium H1-015 [4] = assay type: cell-based, Salmonella enterica serovar Typhimurium; settings: strain H1-015
Source text: as §1

[5] = system: human red blood cells (hRBCs); experiment: Hemolysis assay; assay type: cell-based
Procedure: The toxicity of all peptide derivatives toward human red blood cells (hRBCs) was investigated by evaluating the amount of hemoglobin released after exposure to peptide. Briefly, hRBCs (blood group O) were collected from a healthy adult volunteer into a heparin-coated polycarbonate tube. The sample was centrifuged for 5 min at 1000g to separate erythrocytes from buffy coat and plasma. The erythrocytes were washed at least three times with 1 × PBS and centrifuged for 5 min at 1000g or until supernatant was clear. The sample was resuspended in PBS to obtain 2% (v/v) hRBCs. To determine hRBC lysis, hRBC suspensions were incubated with equal volumes of various concentrations of peptide (0.98–250 µg/ml) for 1 h at 37 °C. Intact hRBCs were centrifuged for 5 min at 1000g, supernatants were transferred into new 96-well plates, and absorbance was measured at OD 405 nm. Untreated hRBCs (in PBS only) served as negative control (ODNegative) and hRBCs treated with 0.1% Triton X-100 as positive control (ODTritonX-100). Absorbance of samples was converted to percentage hemolysis according to the equation: Hemolysis%=ODSample-ODNegative/ODTriton X-100-ODNegative×100

4,5,12:i:- H2-042 = settings: checkerboard, TSB, 37 °C, 24 h
Procedure: (§2) Effects of the combination of A11 with nisin against S. Typhimurium ATCC 13311 and 10 drug-resistant S. Typhimurium and S. enterica isolates were determined by the checkerboard titration method. Briefly, 10 drug-resistant S. Typhimurium were grown to a concentration of 1 × 10^7 CFU/ml in fresh TSB. Aliquots (25 µl) of nisin (final concentrations of 0.5–16 mg/ml) and A11 (final concentrations of 0.98–250 µg/ml) were added into 96-well plates containing 50 µl of bacterial suspension and cultured at 37 °C. […] ICA is the concentration required to produce the same effect as compound A when used alone, ICB is the concentration required to produce the same effect as compound B when used alone. The CI results were interpreted as follows: a CI of less than 1 indicates synergistic effect, a CI equal to 1 indicates additive effect, and a CI of more than 1 indicates antagonistic effect.

4,5,12:i:- H2-039 = settings: checkerboard, TSB, 37 °C, 24 h
Procedure: as §2

4,5,12:i:- H1-100 = settings: checkerboard, TSB, 37 °C, 24 h
Procedure: as §2

S. Typhimurium H1-001 [6] = settings: checkerboard, TSB, 37 °C, 24 h
Procedure: as §2

4,5,12:i:- H2-089 = settings: checkerboard, TSB, 37 °C, 24 h
Procedure: as §2

S. Typhimurium H1-011 [7] = settings: checkerboard, TSB, 37 °C, 24 h
Procedure: as §2

S. Typhimurium H1-062 = settings: checkerboard, TSB, 37 °C, 24 h
Procedure: as §2

S. Typhimurium ATCC13311 = settings: checkerboard, TSB, 37 °C, 24 h
Procedure: as §2

S. Typhimurium H1-015 [8] = settings: checkerboard, TSB, 37 °C, 24 h
Procedure: as §2

S. Typhimurium H1-041 = settings: checkerboard, TSB, 37 °C, 24 h
Procedure: as §2

[9] = system: S. Typhimurium ATCC 13311; experiment: Effect of pH on MIC; assay type: cell-based, Salmonella enterica serovar Typhimurium
Procedure: The pH of peptide solutions was adjusted (pH 3, 5, 7, 9 and 11) using 1 M acetic acid (CH3COOH) and 1 M sodium hydroxide (NaOH). Solutions adjusted to the different pHs without addition of A11 were used as controls. Subsequently, twofold serially diluted solutions (0.98–250 μg/ml) of A11 peptide were prepared with different pHs of peptide solution and incubated at 37 °C for 60 min, transferred to 1 × 10^7 CFU/ml of S. Typhimurium ATCC 13311 suspensions, then incubated at 37 °C with continuous shaking. After 24 h, MIC values were determined.

[10] = system: Staphylococcus aureus ATCC 25923; assay type: cell-based
Source text: as §1

[11] = system: Acinetobactero baumanii MT strain; assay type: cell-based
Source text: as §1

[12] = system: Bacillus cereus ATCC 11778; assay type: cell-based
Source text: as §1

[13] = system: Pseudomonas aeruginosa ATCC 27853; assay type: cell-based
Source text: as §1

[14] = system: Listeria monocytogenes 10403s; assay type: cell-based; settings: 10403s
Source text: as §1

[15] = system: Staphylococcus epidermidis ATCC 12228; assay type: cell-based
Source text: as §1

**Q.** With WVKKVARKVVKIGRKVAR-NH2 [A11] as the substance, how does the “MIC, Control” value [1] read?
**A.** 15.63 µg/mL

**Q.** What about the MBC (S. Typhimurium H1-001 [2]) of the same substance?
**A.** 125 µg/mL

**Q.** What about the MIC (S. Typhimurium H1-001 [2]) of the same substance?
**A.** 62.5 µg/mL

**Q.** What about the MBC (S. Typhimurium H1-011 [3]) of the same substance?
**A.** 62.5 (62.5) µg/ml

**Q.** What about the MIC (S. Typhimurium H1-011 [3]) of the same substance?
**A.** 62.5 (62.5) µg/ml

**Q.** What about the MBC (S. Typhimurium H1-015 [4]) of the same substance?
**A.** 62.5 (62.5) µg/ml

**Q.** And the MIC (S. Typhimurium H1-015 [4])?
**A.** 62.5 (62.5) µg/ml

**Q.** And the “hemolytic activity at the MIC concentration” value [5]?
**A.** less than 2%

**Q.** What about the “MIC (alone)” value (4,5,12:i:- H2-042) of the same substance?
**A.** 62.5 µg/mL

**Q.** And the “MIC (alone)” value (4,5,12:i:- H2-039)?
**A.** 62.5 µg/mL

**Q.** And the “MIC (alone)” value (4,5,12:i:- H1-100)?
**A.** 62.5 µg/mL

**Q.** What about the “MIC (alone)” value (S. Typhimurium H1-001 [6]) of the same substance?
**A.** 62.5 µg/mL

**Q.** What about the “MIC (alone)” value (4,5,12:i:- H2-089) of the same substance?
**A.** 62.5 µg/mL

**Q.** And the “MIC (alone)” value (S. Typhimurium H1-011 [7])?
**A.** 62.5 µg/mL

**Q.** And the “MIC (alone)” value (S. Typhimurium H1-062)?
**A.** 125 µg/mL

**Q.** What about the “MIC (alone)” value (S. Typhimurium ATCC13311) of the same substance?
**A.** 15.63 µg/mL

**Q.** And the “MIC (alone)” value (S. Typhimurium H1-015 [8])?
**A.** 62.5 µg/mL

**Q.** What about the “MIC (alone)” value (S. Typhimurium H1-041) of the same substance?
**A.** 125 µg/mL

**Q.** What about the “MIC at pH 3” value ([9]; peptide solution adjusted to pH 3, incubated 37 °C 60 min, then 24 h with 1 × 10^7 CFU/ml) of the same substance?
**A.** 125 µg/ml

**Q.** What about the “MIC at pH 5” value ([9]; peptide solution adjusted to pH 5, incubated 37 °C 60 min, then 24 h with bacteria) of the same substance?
**A.** 31.25 µg/ml

**Q.** What about the “MIC at pH 7” value ([9]; peptide solution adjusted to pH 7, incubated 37 °C 60 min, then 24 h with bacteria) of the same substance?
**A.** 15.63 µg/ml

**Q.** What about the “MIC at pH 9” value ([9]; peptide solution adjusted to pH 9, incubated 37 °C 60 min, then 24 h with bacteria) of the same substance?
**A.** 15.63 µg/ml

**Q.** And the “MIC at pH 11” value ([9]; peptide solution adjusted to pH 11, incubated 37 °C 60 min, then 24 h with bacteria)?
**A.** 31.25 µg/ml

**Q.** What about the MBC ([10]; ATCC 25923, 18 h) of the same substance?
**A.** > 250 (> 250) µg/ml

**Q.** And the MIC ([10]; ATCC 25923, 24 h)?
**A.** > 250 (> 250) µg/ml

**Q.** What about the MBC ([11]; 18 h) of the same substance?
**A.** 31.25 µg/mL

**Q.** What about the MIC ([11]; 24 h) of the same substance?
**A.** 15.63 µg/mL

**Q.** And the MBC ([12]; ATCC 11778, 18 h)?
**A.** 250 (250) µg/ml

**Q.** What about the MIC ([12]; ATCC 11778, 24 h) of the same substance?
**A.** 250 (250) µg/ml

**Q.** And the MBC ([13]; ATCC 27853, 18 h)?
**A.** 62.5 µg/mL

**Q.** And the MIC ([13]; ATCC 27853, 24 h)?
**A.** 31.25 µg/mL

**Q.** And the MBC ([14]; 18 h)?
**A.** 125 (125) µg/ml

**Q.** What about the MIC ([14]; 24 h) of the same substance?
**A.** 125 (125) µg/ml

**Q.** And the MBC ([15]; ATCC 12228, 18 h)?
**A.** 31.25 µg/mL

**Q.** What about the MIC ([15]; ATCC 12228, 24 h) of the same substance?
**A.** 15.63 µg/mL
